Measurements taken from patent publication US12516038B2, “Inhibitors of antigen presentation by HLA-DR” (Janssen Pharmaceutica NV, priority 2020, dated 2026).

Legend:
[1] = tested on: HLA-DR4 restricted mouse T cell hybridoma line (DR4.CII.36.8) with HLA-DRB1*04:01-expressing Boleth cells; experiment: HLA-DR4-restricted peptide-specific T cell-based assay (hybridoma assay); conditions: 6 h, inhibition of IL-2 production, CII259-273 peptide presented by Boleth cells
Method in brief: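 IC50 values derive from 4-parameter logistic fits of IL-2 AlphaLISA signal over 8-point duplicate titrations. Compound and HLA-DRB1*04:01 Boleth APCs were preincubated 1 h, 37° C., before adding CII259-273-restricted DR4.CII.36.8 hybridoma cells with peptide for 6 h at 37° C., in DMEM/1% FCS.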

[2] = tested on: human peripheral blood CD4+ helper T cells; experiment: Pan-CD4+ T cell activation (off-target assay); assay type: cell-based; conditions: anti-CD3/anti-CD28 stimulation, IL-2 production by ELISA
Method in brief: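 IL-2 secretion was measured by ELISA of culture supernatant after 24 h of TCR stimulation. Stimulation used anti-CD3 coated at 1 μg/mL and 1 μg/mL soluble anti-CD28 on human blood CD4+ helper T cells without HLA-DR-expressing APCs, with compound or vehicle present.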

HLA-DRB1*0401 = HLA-DRB1*0401 (Homo sapiens (Human), UniProt P01903+P01911, A100K/A169T/DEL228-266/F76Y/I96L/K127E/L162R/M171V/N62H/P40V/Q125Y/R42H/S133A/S149N/S66Y/V115G/V209L/W38E); experiment: HLA-DR4 HTRF assay; assay type: binding; conditions: inhibition of loading of Alexa Fluor 647-labeled Cit-CII peptide onto HLA-DR4 (CLIP cleaved)
Method in brief: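 HLA-DRB1*04:01 construct (α/β fused to human Fc, CLIP pre-cleaved by HRV3C overnight at 4° C) at 3 nM was preincubated 45 min with compound and 1 nM anti-Fc-Tb donor, then 40 nM Alexa647-Cit-CII1236-1249 peptide added. After 90 min at 37° C, the 665/620 nm HTRF ratio gave % inhibition; IC50 by nonlinear regression.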

Compound | IC50 ([1]; Mus musculus, T-cell) | IC50 ([2]; Homo sapiens, T-cell, 24 h) | IC50 (HLA-DRB1*0401) | IC50 [1] | IC50 ([2]; 24 hrs)
C[C@H]1CC(=O)c2ccc(O[C@@H](c3ccncc3)c3ccc(C(N)=O)cc3)cc2O1 (single isomer, unassigned) [Example 39c, 4-((*R)—(((*S)-2-Methyl-4-oxochroman-7-yl)oxy)(pyridin-4-yl)methyl)benzamide] | 1.1 µM | 9.9 µM | 0.99 µM |  | 
CC[C@@H]1CC(=O)c2ccc(O[C@@H](c3ccncc3)c3ccc(C(N)=O)cc3)cc2O1 (single isomer, unassigned) [Example 40a, 4-((*R)—(((*R)-2-ethyl-4-oxochroman-7-yl)oxy)(pyridin-4-yl)methyl)benzamide] | 0.76 µM | 15 µM | 1.5 µM |  | 
CC[C@H]1CC(=O)c2ccc(O[C@@H](c3ccncc3)c3ccc(C(N)=O)cc3)cc2O1 (single isomer, unassigned) [Example 40b, 4-((*R)—(((*S)-2-ethyl-4-oxochroman-7-yl)oxy)(pyridin-4-yl)methyl)benzamide] | 1 µM | 15 µM | 1.3 µM |  | 
CC[C@H]1CC(=O)c2ccc(O[C@H](c3ccncc3)c3ccc(C(N)=O)cc3)cc2O1 (single isomer, unassigned) [Example 41b, 4-((*S)—(((*S)-2-ethyl-4-oxochroman-7-yl)oxy)(pyridin-4-yl)methyl)benzamide] | 1.5 µM | > 15 µM | 1.1 µM |  | 
NC(=O)c1ccc([C@H](Oc2ccc3c(c2)O[C@@H](c2ccccc2)CC3=O)c2ccncc2)cc1 (single isomer, unassigned) [Example 42a, 4-((*S)—(((*R)-4-oxo-2-phenylchroman-7-yl)oxy)(pyridin-4-yl)methyl)benzamide] | 11 µM | > 15 µM | 3.8 µM |  | 
NC(=O)c1ccc([C@H](Oc2ccc3c(c2)O[C@H](c2ccccc2)CC3=O)c2ccncc2)cc1 (single isomer, unassigned) [Example 42b, 4-((*S)—(((*S)-4-oxo-2-phenylchroman-7-yl)oxy)(pyridin-4-yl)methyl)benzamide] | 12 µM | 9.9 µM | 7.5 µM |  | 
NC(=O)c1ccc([C@@H](Oc2ccc3c(c2)O[C@@H](c2ccccc2)CC3=O)c2ccncc2)cc1 (single isomer, unassigned) [Example 43a, 4-((*R)—(((*R)-4-oxo-2-phenylchroman-7-yl)oxy)(pyridin-4-yl)methyl)benzamide] | 0.74 µM | 4.5 µM | 3.6 µM |  | 
NC(=O)c1ccc([C@@H](Oc2ccc3c(c2)O[C@H](c2ccccc2)CC3=O)c2ccncc2)cc1 (single isomer, unassigned) [Example 43b, 4-((*R)—(((*S)-4-oxo-2-phenylchroman-7-yl)oxy)(pyridin-4-yl)methyl)benzamide] | 0.63 µM | 9.9 µM | 4.9 µM |  | 
C[C@@H]1COc2cc(O[C@H](c3ccncc3)c3ccc(C(N)=O)cc3)ccc2C1=O (single isomer, unassigned) [Example 44a, 4-((*S)—(((*R)-3-Methyl-4-oxochroman-7-yl)oxy)(pyridin-4-yl)methyl)benzamide] | 1.6 µM | > 15 µM | 1.6 µM |  | 
C[C@@H]1COc2cc(O[C@@H](c3ccncc3)c3ccc(C(N)=O)cc3)ccc2C1=O (single isomer, unassigned) [Example 44b, 4-((*R)—(((*R)-3-Methyl-4-oxochroman-7-yl)oxy)(pyridin-4-yl)methyl)benzamide] | 2.3 µM | > 15 µM | 1.1 µM |  | 
CC[C@@H]1COc2cc(O[C@H](c3ccncc3)c3ccc(C(N)=O)cc3)ccc2C1=O (single isomer, unassigned) [Example 45a, 4-((*S)—(((*R)-3-ethyl-4-oxochroman-7-yl)oxy)(pyridin-4-yl)methyl)benzamide] | 3.4 µM | > 15 µM | 1.1 µM |  | 
CC[C@H]1COc2cc(O[C@H](c3ccncc3)c3ccc(C(N)=O)cc3)ccc2C1=O (single isomer, unassigned) [Example 45b, 4-((*S)—(((*S)-3-ethyl-4-oxochroman-7-yl)oxy)(pyridin-4-yl)methyl)benzamide] | 10 µM | > 15 µM | 1.4 µM |  | 
CC[C@@H]1COc2cc(O[C@@H](c3ccncc3)c3ccc(C(N)=O)cc3)ccc2C1=O (single isomer, unassigned) [Example 46a, 4-((*R)—(((*R)-3-ethyl-4-oxochroman-7-yl)oxy)(pyridin-4-yl)methyl)benzamide] | 1.5 µM | > 15 µM | 0.97 µM |  | 
CC[C@H]1COc2cc(O[C@@H](c3ccncc3)c3ccc(C(N)=O)cc3)ccc2C1=O (single isomer, unassigned) [Example 46b, 4-((*R)—(((*S)-3-ethyl-4-oxochroman-7-yl)oxy)(pyridin-4-yl)methyl)benzamide] | 0.17 µM | 5 µM | 1.3 µM |  | 
Cc1c(O[C@@H](c2ccncc2)c2ccc(C(N)=O)cc2)ccc2c1OCCC2=O (single isomer, unassigned) [Example 48a, (*R)-4-(((8-methyl-4-oxochroman-7-yl)oxy)(pyridin-4-yl)methyl)benzamide] |  | 9.9 µM | 0.68 µM | 0.14 µM | 
Cc1c(O[C@@H](c2ccncc2)c2ccc(C(N)=O)cc2)ccc2c1OCCC2=O (single isomer, unassigned) [Example 48b, (*S)-4-(((8-methyl-4-oxochroman-7-yl)oxy)(pyridin-4-yl)methyl)benzamide] |  |  | 0.69 µM | 1.1 µM | > 15 µM
Cc1cc2c(cc1O[C@@H](c1ccncc1)c1ccc(C(N)=O)cc1)OCCC2=O (single isomer, unassigned) [Example 49a, (*R)-4-(((6-Methyl-4-oxochroman-7-yl)oxy)(pyridin-4-yl)methyl)benzamide] | 0.2 µM | 9.9 µM | 0.57 µM |  | 
Cc1cc2c(cc1O[C@H](c1ccncc1)c1ccc(C(N)=O)cc1)OCCC2=O (single isomer, unassigned) [Example 49b, (*S)-4-(((6-Methyl-4-oxochroman-7-yl)oxy)(pyridin-4-yl)methyl)benzamide] | 3 µM | 15 µM | 1 µM |  | 
NC(=O)c1ccc([C@@H](Oc2ccc3c(c2F)OCCC3=O)c2ccncc2)cc1 (single isomer, unassigned) [Example 50a, (*R)-4-(((8-Fluoro-4-oxochroman-7-yl)oxy)(pyridin-4-yl)methyl)benzamide] | 0.24 µM | 9.9 µM | 1.9 µM |  | 
NC(=O)c1ccc([C@H](Oc2ccc3c(c2F)OCCC3=O)c2ccncc2)cc1 (single isomer, unassigned) [Example 50b, (*S)-4-(((8-Fluoro-4-oxochroman-7-yl)oxy)(pyridin-4-yl)methyl)benzamide] | 2.5 µM | > 15 µM | 1.9 µM |  | 
NC(=O)c1ccc([C@@H](Oc2cc(F)c3c(c2)OCCC3=O)c2ccncc2)cc1 (single isomer, unassigned) [Example 51a, (*R)-4-(((5-Fluoro-4-oxochroman-7-yl)oxy)(pyridin-4-yl)methyl)benzamide] | 0.25 µM | 15 µM | 3.6 µM |  | 
NC(=O)c1ccc([C@@H](Oc2cc3c(cc2F)C(=O)CCO3)c2ccncc2)cc1 (single isomer, unassigned) [Example 52a, (*R)-4-(((6-Fluoro-4-oxochroman-7-yl)oxy)(pyridin-4-yl)methyl)benzamide] | 0.56 µM | > 15 µM | 0.23 µM |  | 
NC(=O)c1ccc([C@@H](Oc2ccc3c(c2-c2ccccc2)OCCC3=O)c2ccncc2)cc1 (single isomer, unassigned) [Example 53a, (*R)-4-(((4-oxo-8-phenylchroman-7-yl)oxy)(pyridin-4-yl)methyl)benzamide] | 0.74 µM | 2.1 µM | 0.8 µM |  | 
NC(=O)c1ccc([C@H](Oc2ccc3c(c2-c2ccccc2)OCCC3=O)c2ccncc2)cc1 (single isomer, unassigned) [Example 53b, (*S)-4-(((4-oxo-8-phenylchroman-7-yl)oxy)(pyridin-4-yl)methyl)benzamide] | 0.45 µM | 3.2 µM | 0.6 µM |  | 
NC(=O)c1ccc([C@@H](Oc2cc3c(cc2-c2ccccc2)C(=O)CCO3)c2ccncc2)cc1 (single isomer, unassigned) [Example 54a, (*R)-4-(((4-oxo-6-phenylchroman-7-yl)oxy)(pyridin-4-yl)methyl)benzamide] | 0.078 µM | 0.52 µM | 0.63 µM |  | 
NC(=O)c1ccc([C@H](Oc2cc3c(cc2-c2ccccc2)C(=O)CCO3)c2ccncc2)cc1 (single isomer, unassigned) [Example 54b, (*S)-4-(((4-oxo-6-phenylchroman-7-yl)oxy)(pyridin-4-yl)methyl)benzamide] | 4.3 µM | 15 µM | 0.87 µM |  | 
